Data from patent publication US20140081012A1, “NANOPARTICLE, LIPOSOMES, POLYMERS, AGENTS AND PROTEINS MODIFIED WITH REVERSIBLE LINKERS” (THE UNIVERSITY OF NORTH CAROLINA AT CHAPEL HILL, priority 2011, published 2014).

Assays:
[1] = Regeneration of tyramine after disulfide cleavage with DTT (GC-MS); assay type: physicochemical; settings: 50 mM DTT in PBS
Procedure: Two tyramine molecules were reacted with DIC in isopropanol, which completely simulates the cross-linking conditions for protein-based particles (FIG. 26). The commercially available disulfide crosslinker DSP was used as a control in this study. The dimer products were denoted as tyramine-DIC and tyramine-DSP, respectively. Both compounds were treated with 50 mM of dithiothreitol (DTT) in phosphate buffer saline (PBS) to cleave the disulfide bond. […] In addition, ^1H-NMR and high-resolution mass spectrometry confirmed the structure of tyramine recovered after DTT treatment of tyram tyramine-DIC. (SI) Therefore, all the aforementioned results support the successful design of the novel DIC crosslinker.
Tyramine (0.24 g, 1.75 mmol) was added to a solution of DIC (0.12 g, 0.35 mmol) in isopropanol (15 mL). The reaction mixture was stirred for 24 h at 40° C. The mixture was concentrated and purified by column chromatography (EtOAc) to give tyramine-DIC ([…]) as light yellow solid. Tyramine (0.24 g, 1.75 mmol) was added to a solution of DSP (0.14 g, 0.35 mmol) in DMF (4 mL). The reaction mixture was stirred for 24 h at 40° C. […] The supernatants from the solutions were collected and analyzed by gas chromatography-mass spectrometry (Alilent Technologies 5975 series MSD, 7820A GC system) and untreated tyramine was used as standard.

[2] = tested on: anti-BSA antibody (sandwich ELISA); experiment: BSA ELISA characterization; assay type: binding; settings: several concentrations over the sampling range
Procedure: Several concentrations were compared over the sampling range of the assays (FIG. 30). […] ELISA relies upon protein-protein interactions, thus providing insight into the preservation of the protein's binding motifs.
The solution was then dialyzed against water for 2 h to remove GSH. […] Absorbance was measured with a SpectraMax M5 plate reader (Molecular Devices) at 450 nm.

regeneration of tyramine after cleavage of the disulfide bond [1] | Compound | absorbance in BSA ELISA compared with native albumin [2]
No peak of tyramine was observed | O=C(CCSSCCC(=O)NCCc1ccc(O)cc1)NCCc1ccc(O)cc1 [tyramine-DSP] | –
– | albumin dissolved from the cross-linked particles: BSA released from DIC-cross-linked PRINT BSA particles in PBS with 5 mM glutathione | very similar absorbance
– | denatured free protein: heat denatured BSA | significantly less total absorbance
